Test results taken from patent publication USRE47302E1 (ONYX THERAPEUTICS INC., priority 2013, dated 2019).
pIC50: −log10 of the molar value. Values after ≈ are worked out from the molar mass of the structure shown.

Columns and labels:
[1] = target: human constitutive 20S proteasome (c20S) (Homo sapiens, UniProt P28074); assay: 20S proteasome assay, chymotrypsin-like activity (succinyl-Leu-Leu-Val-Tyr-AMC), c20S; type: biochemical; conditions: LLVY substrate, 1 h continuous
Source text: (§1) Assay buffer consisted of TE buffer [20 mmol/L Tris (pH 8.0), 0.5 mmol/L EDTA] with (20S) or without (cell lysate) 0.03% SDS. Reactions were initiated by enzyme or lysate addition and monitored for AMC product formation at 27jC with a plate-based spectofluorometer (Tecan).

[2] = target: human 20S immunoproteasome (i20S) (Homo sapiens, UniProt P28062); assay: 20S proteasome assay, chymotrypsin-like activity (succinyl-Leu-Leu-Val-Tyr-AMC), i20S; type: biochemical; conditions: LLVY substrate, 1 h continuous
Source text: as §1

Solubility pH 7 = conditions: pH 7, aqueous buffer
[3] = target: T1, immunoproteasome subunit LMP7 (Homo sapiens, UniProt P28062); assay: Proteasome active-site ELISA (ProCISE), LMP7, MOLT-4 lysate; type: biochemical; conditions: MOLT4 lysate, 1 h continuous treatment, 25° C.
T1 construct: Lysate from the human acute lymphoblastic leukemia cell line, MOLT-4; endogenous in cells; host or cells: MOLT-4
Summary of the method: (§2)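 MOLT-4 cell lysate treated 1 h at 25 °C with compound; probe-bound subunits denatured, pulled down on streptavidin beads and detected with subunit-specific antibodies plus HRP chemiluminescence.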

[4] = target: T2, proteasome subunit β5 (beta5) (Homo sapiens, UniProt P28074); assay: Proteasome active-site ELISA (ProCISE), beta5, MOLT-4 lysate; type: biochemical; conditions: MOLT4 lysate, human, 1 h continuous treatment, 25° C.
T2 construct: Lysate from the human acute lymphoblastic leukemia cell line, MOLT-4; endogenous in cells; host or cells: MOLT-4
Summary of the method: as §2

Structure (SMILES) | pIC50 [1] | pIC50 [2] | solubility (Solubility pH 7) [µg/mL] | pIC50 [3] | pIC50 [4]
C[C@H](NC(=O)CN1CCOCC1)C(=O)N[C@@H](Cc1coc2ccccc12)C(=O)N[C@@H](CC1CCCC1)C(=O)[C@@]1(C)CO1 [Compound C-1015, (S)-3-(benzofuran-3-yl)-N-((S)-3-cyclopentyl-1-((R)-2-methyloxiran-2-yl)-1-oxopropan-2-yl)-2-((S)-2-(2-morpholinoacetamido)propanamido)propanamide] | 6.30 | 6.78 | 212 (≈ 364 µM) | 6.30 | 5.94
COc1ccc(C[C@H](NC(=O)[C@H](C)NC(=O)CN2CCOCC2)C(=O)N[C@@H](CC2CCCC2)C(=O)[C@@]2(C)CO2)cc1O [Compound C-1018, (S)-N-((S)-3-cyclopentyl-1-((R)-2-methyloxiran-2-yl)-1-oxopropan-2-yl)-3-(3-hydroxy-4-methoxyphenyl)-2-((S)-2-(2-morpholinoacetamido)propanamido)propanamide] | 6.18 | 6.77 | 5840 (≈ 9910 µM) | 6.74 | 5.76
COc1ccc(C[C@H](NC(=O)[C@@H](C)NC(=O)[C@H]2CC[C@H](O)CC2)C(=O)N[C@@H](CC2=CCCC2)C(=O)[C@@]2(C)CO2)cc1 [Compound C-1057, (1r,4R)-N-((R)-1-(((S)-1-(((S)-3-(cyclopent-1-en-1-yl)-1-((R)-2-methyloxiran-2-yl)-1-oxopropan-2-yl)amino)-3-(4-methoxyphenyl)-1-oxopropan-2-yl)amino)-1-oxopropan-2-yl)-4-hydroxycyclohexanecarboxamide] | 6.23 | 8.28 | 491 (≈ 862 µM) | 7.47 | 5.59
COc1ccc(C[C@H](NC(=O)[C@H](C)NC(=O)CN2CCOCC2)C(=O)N[C@@H](CC2CCCC2)C(=O)[C@@]2(C)CO2)cc1 [Compound C-1005, (S)-N-((S)-3-cyclopentyl-1-((R)-2-methyloxiran-2-yl)-1-oxopropan-2-yl)-3-(4-methoxyphenyl)-2-((S)-2-(2-morpholinoacetamido)propanamido)propanamide] | 6.28 | 7.15 | 1760 (≈ 3080 µM) | 6.73 | 5.71
COc1ccc(C[C@H](NC(=O)[C@H](C)NC(=O)CN2CCOCC2)C(=O)N[C@@H](Cc2ccccc2)C(=O)[C@@]2(C)CO2)cc1OC [Compound C-1160, (S)-3-(3,4-dimethoxyphenyl)-N-((S)-1-((R)-2-methyloxiran-2-yl)-1-oxo-3-phenylpropan-2-yl)-2-((S)-2-(2-morpholinoacetamido)propanamido)propanamide] | 6.04 | 6.61 | 1530 (≈ 2500 µM) | 6.80 | 6.18
COc1ccc(C[C@H](NC(=O)[C@@H](C)NC(=O)C2CCOCC2)C(=O)N[C@@H](CC2CCCC2)C(=O)[C@@]2(C)CO2)cc1O [Compound C-1061, N-((R)-1-(((S)-1-(((S)-3-cyclopentyl-1-((R)-2-methyloxiran-2-yl)-1-oxopropan-2-yl)amino)-3-(3-hydroxy-4-methoxyphenyl)-1-oxopropan-2-yl)amino)-1-oxopropan-2-yl)tetrahydro-2H-pyran-4-carboxamide] | 6.12 | 7.81 | 2050 (≈ 3580 µM) | 7.15 | 6.01
COc1ccc(C[C@H](NC(=O)[C@H](CO)NC(=O)CN2CCOCC2)C(=O)N[C@@H](Cc2ccccc2)C(=O)[C@@]2(C)CO2)cc1 [Compound C-1159, (S)-3-hydroxy-N-((S)-3-(4-methoxyphenyl)-1-(((S)-1-((R)-2-methyloxiran-2-yl)-1-oxo-3-phenylpropan-2-yl)amino)-1-oxopropan-2-yl)-2-(2-morpholinoacetamido)propanamide] | 6.33 | 7.37 | 1910 (≈ 3210 µM) | 7.37 | 6.34
COc1ccc(C[C@H](NC(=O)[C@@H](C)NC(=O)C2CCOCC2)C(=O)N[C@@H](CC2CCCC2)C(=O)[C@@]2(C)CO2)cc1 [Compound C-1028, N-((R)-1-(((S)-1-(((S)-3-cyclopentyl-1-((R)-2-methyloxiran-2-yl)-1-oxopropan-2-yl)amino)-3-(4-methoxyphenyl)-1-oxopropan-2-yl)amino)-1-oxopropan-2-yl)tetrahydro-2H-pyran-4-carboxamide] | 6.00 | 7.27 | 215 (≈ 385 µM) | 7.28 | 6.09
COc1ccc(C[C@H](NC(=O)[C@@H](C)NC(=O)[C@@H]2CCCOC2)C(=O)N[C@@H](CC2CCCC2)C(=O)[C@@]2(C)CO2)cc1 [Compound C-1052, (R)-N-((R)-1-(((S)-1-(((S)-3-cyclopentyl-1-((R)-2-methyloxiran-2-yl)-1-oxopropan-2-yl)amino)-3-(4-methoxyphenyl)-1-oxopropan-2-yl)amino)-1-oxopropan-2-yl)tetrahydro-2H-pyran-3-carboxamide] | 6.29 | 7.35 | 706 (≈ 1270 µM) | 6.99 | 6.29
C[C@H](NC(=O)CN1CCOCC1)C(=O)N[C@@H](Cc1ccc(S(C)(=O)=O)cc1)C(=O)N[C@@H](CC1CCCC1)C(=O)[C@@]1(C)CO1 [Compound C-1027, (S)-N-((S)-3-cyclopentyl-1-((R)-2-methyloxiran-2-yl)-1-oxopropan-2-yl)-3-(4-(methylsulfonyl)phenyl)-2-((S)-2-(2-morpholinoacetamido)propanamido)propanamide] | 6.11 | 6.97 | 5750 (≈ 9260 µM) | 6.78 | 5.98
C[C@H](NC(=O)CN1CCOCC1)C(=O)N[C@@H](Cc1ccc(N(C)C)cc1)C(=O)N[C@@H](Cc1ccccc1)C(=O)[C@@]1(C)CO1 [Compound C-1161, (S)-3-(4-(dimethylamino)phenyl)-N-((S)-1-((R)-2-methyloxiran-2-yl)-1-oxo-3-phenylpropan-2-yl)-2-((S)-2-(2-morpholinoacetamido)propanamido)propanamide] | 6.09 | 6.84 | 2110 (≈ 3560 µM) | 7.29 | 6.39
COc1ccc(C[C@H](NC(=O)[C@@H](C)NC(=O)CC2CCOCC2)C(=O)N[C@@H](CC2CCCC2)C(=O)[C@@]2(C)CO2)cc1 [Compound C-1011, (S)-N-((S)-3-cyclopentyl-1-((R)-2-methyloxiran-2-yl)-1-oxopropan-2-yl)-3-(4-methoxyphenyl)-2-((R)-2-(2-(tetrahydro-2H-pyran-4-yl)acetamido)propanamido)propanamide] | 5.81 | 7.01 | 1120 (≈ 1950 µM) | 6.25 | 5.16

These reach a higher pIC50 [1]. Values come first.

pIC50 [1] | pIC50 [2] | solubility (Solubility pH 7) [µg/mL] | pIC50 [3] | pIC50 [4] | Structure (SMILES)
6.36 | 6.97 | 878 (≈ 1510 µM) | 6.50 | 5.63 | C[C@H](NC(=O)CN1CCOCC1)C(=O)N[C@@H](Cc1ccc2occc2c1)C(=O)N[C@@H](CC1CCCC1)C(=O)[C@@]1(C)CO1 [Compound C-1007, (S)-3-(benzofuran-5-yl)-N-((S)-3-cyclopentyl-1-((R)-2-methyloxiran-2-yl)-1-oxopropan-2-yl)-2-((S)-2-(2-morpholinoacetamido)propanamido)propanamide]
6.52 | 7.18 | 3510 (≈ 5990 µM) | 6.81 | 6.10 | C[C@H](NC(=O)CN1CCOCC1)C(=O)N[C@@H](Cc1ccc(C(N)=O)cc1)C(=O)N[C@@H](CC1CCCC1)C(=O)[C@@]1(C)CO1 [Compound C-1049, 4-((S)-3-(((S)-3-cyclopentyl-1-((R)-2-methyloxiran-2-yl)-1-oxopropan-2-yl)amino)-2-((S)-2-(2-morpholinoacetamido)propanamido)-3-oxopropyl)benzamide]
6.77 | 7.83 | 1310 (≈ 2310 µM) | 7.04 | 6.35 | COc1ccc(C[C@H](NC(=O)[C@@H](C)NC(=O)C2CC3(COC3)C2)C(=O)N[C@@H](CC2=CCCC2)C(=O)[C@@]2(C)CO2)cc1 [Compound C-1063, N-((R)-1-(((S)-1-(((S)-3-(cyclopent-1-en-1-yl)-1-((R)-2-methyloxiran-2-yl)-1-oxopropan-2-yl)amino)-3-(4-methoxyphenyl)-1-oxopropan-2-yl)amino)-1-oxopropan-2-yl)-2-oxaspiro[3.3]heptane-6-carboxamide]
6.79 | 7.64 | 1780 (≈ 2920 µM) | 7.64 | 6.83 | COc1ccc(C[C@H](NC(=O)[C@@H](NC(=O)CN2CCOCC2)[C@H](C)O)C(=O)N[C@@H](Cc2ccccc2)C(=O)[C@@]2(C)CO2)cc1 [Compound C-1174]
7.33 | 8.33 | 298 (≈ 523 µM) | 8.57 | 7.76 | COc1ccc(C[C@H](NC(=O)[C@@H](C)NC(=O)[C@H]2CC[C@@H](O)CC2)C(=O)N[C@@H](CC2=CCCC2)C(=O)[C@@]2(C)CO2)cc1 [Compound C-1056, (1s,4S)-N-((R)-1-(((S)-1-(((S)-3-(cyclopent-1-en-1-yl)-1-((R)-2-methyloxiran-2-yl)-1-oxopropan-2-yl)amino)-3-(4-methoxyphenyl)-1-oxopropan-2-yl)amino)-1-oxopropan-2-yl)-4-hydroxycyclohexanecarboxamide]
